The source of these data is article PMC10145610, “In Vitro and In Silico Investigation of Polyacetylenes from Launaea capitata (Spreng.) Dandy as Potential COX-2, 5-LOX, and BchE Inhibitors” (Molecules, 2023).

Read-outs that look alike come from different tables or passages of the source. Where only a bound is given, the exact number is not on record here.

One test deals with T1, COX-2 (Homo sapiens, UniProt P35354).
T1 construct: purchased BioVision K547-100
T1 sequence (P35354 18-604): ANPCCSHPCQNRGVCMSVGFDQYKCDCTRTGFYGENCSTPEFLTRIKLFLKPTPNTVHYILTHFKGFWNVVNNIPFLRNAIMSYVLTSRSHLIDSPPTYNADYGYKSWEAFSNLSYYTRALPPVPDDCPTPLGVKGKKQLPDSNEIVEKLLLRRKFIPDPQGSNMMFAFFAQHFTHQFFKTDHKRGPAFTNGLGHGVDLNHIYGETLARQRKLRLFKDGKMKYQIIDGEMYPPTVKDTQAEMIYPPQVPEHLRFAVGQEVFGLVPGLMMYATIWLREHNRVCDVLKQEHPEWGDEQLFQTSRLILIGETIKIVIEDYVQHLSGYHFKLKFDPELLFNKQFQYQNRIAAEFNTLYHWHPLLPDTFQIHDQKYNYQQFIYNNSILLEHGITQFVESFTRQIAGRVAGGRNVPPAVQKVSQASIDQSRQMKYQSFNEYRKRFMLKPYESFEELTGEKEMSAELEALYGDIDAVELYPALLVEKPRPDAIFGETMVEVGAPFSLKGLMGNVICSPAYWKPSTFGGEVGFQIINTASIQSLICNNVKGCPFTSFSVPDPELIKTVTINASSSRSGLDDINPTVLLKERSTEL
Put plainly: COX-2 inhibition assay (fluorometric inhibitor screening kit). The class given is biochemical. The method, then: The fluorometric approach was used to measure the in vitro cyclooxygenase (COX-2) inhibitory activity. It was carried out in accordance with the COX-2 Inhibitor Screening Kit methodology, as advised by the manufacturer (CAT # K547-100, BioVision, Milpitas, CA, USA). The sample solutions were prepared in the manner described before providing twelve concentrations (ranging from […]).
(§1) The IC50 values were represented as means (± SD) from triplicates of two independent experiments.

Test [1] has as its target T2, horse serum butyrylcholinesterase (Equine BchE) (Equus caballus, UniProt P81908).
T2 construct: using horse serum butyrylcholinesterase (Equine BchE; CAS#9001-08-5); tissue CAS#9001-08-5; host or cells: horse serum
In words: BchE inhibition assay. The class given is biochemical. The method, then: The in vitro butyrylcholinesterase (BchE) inhibitory activity of the isolated polyacetylenes was determined according to the published method, using horse serum butyrylcholinesterase (Equine BchE; CAS#9001-08-5) with a slight change. To create a useful stock solution, the materials were dissolved in DMSO. The maximal DMSO concentration was 0.1%, and twelve sample concentrations (ranging from […]) were created by two-fold serial dilution in Tris buffer (pH 8.0).
as §1

For test [2], the target named is T3, 5-LOX (Homo sapiens, UniProt P09917).
T3 construct: purchased BioVision K980-100
T3 sequence (P09917 1-674): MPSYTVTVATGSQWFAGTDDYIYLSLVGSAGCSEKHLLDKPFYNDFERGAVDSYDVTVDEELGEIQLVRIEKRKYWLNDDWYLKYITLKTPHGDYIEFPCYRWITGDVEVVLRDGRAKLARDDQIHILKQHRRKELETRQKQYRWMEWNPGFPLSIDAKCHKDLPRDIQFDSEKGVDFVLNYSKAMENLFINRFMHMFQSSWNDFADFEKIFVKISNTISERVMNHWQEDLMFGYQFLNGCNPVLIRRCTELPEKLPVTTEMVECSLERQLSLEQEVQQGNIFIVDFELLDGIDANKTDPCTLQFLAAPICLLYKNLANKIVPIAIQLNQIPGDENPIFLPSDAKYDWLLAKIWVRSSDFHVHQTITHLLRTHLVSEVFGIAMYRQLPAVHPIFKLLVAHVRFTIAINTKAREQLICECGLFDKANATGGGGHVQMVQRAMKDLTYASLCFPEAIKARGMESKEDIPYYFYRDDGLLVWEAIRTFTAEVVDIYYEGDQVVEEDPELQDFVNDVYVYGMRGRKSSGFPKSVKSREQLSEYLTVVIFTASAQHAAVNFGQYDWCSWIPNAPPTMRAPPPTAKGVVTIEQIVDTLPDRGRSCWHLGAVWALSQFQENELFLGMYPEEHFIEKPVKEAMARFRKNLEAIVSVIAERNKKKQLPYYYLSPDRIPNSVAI
Put plainly: 5-LOX inhibition assay (fluorometric inhibitor screening kit). It counts as biochemical. The procedure: The fluorometric approach was used to test the 5-LOX enzyme, in accordance with the manufacturer’s instructions, by using the enzyme’s inhibitor screening kit (CAT # K980-100, BioVision, Milpitas, CA, USA) to evaluate the 5-lipoxygenase (5-LOX) inhibitory activity in vitro [18, 45, 46]. Twelve concentrations (ranging from […]) were prepared by serial dilution method.
as §1

Test [3] concerns the target T3, 5-LOX. Particulars: read-out: inhibitory activity against 5-LOX; cited from earlier work.
The test system of the next test is COX-1. The note with it: read-out: inhibitory activity against COX-1; cited from earlier work.

T2 sequence (P81908 whole entry): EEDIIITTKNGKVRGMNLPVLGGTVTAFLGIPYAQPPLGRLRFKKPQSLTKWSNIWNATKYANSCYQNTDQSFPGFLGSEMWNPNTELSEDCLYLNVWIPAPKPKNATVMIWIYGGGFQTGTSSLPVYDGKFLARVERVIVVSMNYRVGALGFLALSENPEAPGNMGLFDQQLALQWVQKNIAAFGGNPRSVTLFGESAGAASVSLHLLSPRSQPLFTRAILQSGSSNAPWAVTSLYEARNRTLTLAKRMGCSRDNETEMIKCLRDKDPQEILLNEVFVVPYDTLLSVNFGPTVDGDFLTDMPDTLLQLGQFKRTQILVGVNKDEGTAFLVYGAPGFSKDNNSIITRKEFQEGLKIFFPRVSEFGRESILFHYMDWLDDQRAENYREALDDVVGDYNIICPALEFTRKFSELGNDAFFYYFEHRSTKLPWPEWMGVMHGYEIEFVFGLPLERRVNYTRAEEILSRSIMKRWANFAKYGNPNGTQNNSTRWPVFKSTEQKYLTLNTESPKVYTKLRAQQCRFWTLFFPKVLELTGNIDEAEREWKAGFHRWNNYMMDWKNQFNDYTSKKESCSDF

For `CC(Cc1ccc(O)c(O)c1)C(C)Cc1ccc(O)c(O)c1` (stereo not shown) [NDGA, nordihydroguaiaretic acid, reference compound], the IC50 on COX-2 (in vitro, mean ± SD, triplicates of two independent experiments, read-out: IC50 against COX-2) came out at 4.7 ± 0.76 µM.

On to `C/C=C/C#CC#C/C=C/CC[C@@H](CCO)O[C@@H]1O[C@H](CO)[C@@H](O)[C@H](O)[C@H]1O` [Compound 4, (3S)-(6E,12E)-tetradecadiene-8,10-diyne-1-ol-3-O-β-D-glucopyranoside], for which the IC50 was determined as 14.8 ± 1.55 µM in test [1], 34.6 ± 4.26 µM against 5-LOX [2] and 146 ± 7.7 µM against COX-2.

Consider `C/C=C/C#CC#C/C=C/C=C\CCOC(=O)/C=C/c1ccc(O)c(OC)c1` [(3Z,5E,11E)-tridecatriene-7,9-diynyl-1-O-(E)-ferulate], for which the IC50 on 5-LOX [3] is 3.4 µM; in the test with COX-1 it was 1.1 µM.

Regarding `C/C=C/C#CC#C/C=C/CC[C@H](O)CCO` [Compound 2, (3S)-(6E,12E)-tetradecadiene-8,10-diyne-1,3-diol], the IC50 was 179 ± 15.6 µM in test [1], over 200 µM against 5-LOX [2] and over 200 µM at COX-2. For the same compound, the “IC50 against COX-2” value on COX-2 (in vitro, mean ± SD, triplicates of two independent experiments) was “inactive”.
